Key:
[1] = xn = mol fraction of the nth substance listed; conditions: 101 kPa, Liquid; for speed of sound: Sing-around technique in a fixed-path interferometer; for mass density: Vibrating tube method
[2] = excess molar enthalpy (molar enthalpy of mixing); xn = mol fraction of the nth substance listed; conditions: 308.15 K, 101 kPa, Liquid, Drop calorimetry

Cc1ccccc1N [2-methylaniline] + C1CCOCC1
[1]
Conditions | mass density, 298.15 K [kg/m3] | mass density, 303.15 K [kg/m3] | mass density, 308.15 K [kg/m3] | speed of sound, 298.15 K [m/s] | speed of sound, 303.15 K [m/s] | speed of sound, 308.15 K [m/s]
x1 = 0.0732 | 890.691 | 885.73 | 880.749 | 1296.4 | 1274.1 | 1252.5
x1 = 0.1342 | 899.769 | 894.897 | 890.021 | 1318.6 | 1296.8 | 1275.8
x1 = 0.1768 | 905.846 | 900.991 | 896.174 | 1334 | 1312.5 | 1292
x1 = 0.2207 | 911.867 | 907.057 | 902.258 | 1349.8 | 1328.6 | 1308.5
x1 = 0.2721 | 918.66 | 913.86 | 909.112 | 1368.2 | 1347.1 | 1327.6
x1 = 0.3328 | 926.351 | 921.578 | 916.872 | 1389.3 | 1368.7 | 1349.5
x1 = 0.3562 | 929.219 | 924.445 | 919.758 | 1397.3 | 1376.9 | 1357.8
x1 = 0.3901 | 933.275 | 928.536 | 923.89 | 1409 | 1388.5 | 1369.8
x1 = 0.4288 | 937.818 | 933.094 | 928.469 | 1421.8 | 1401.6 | 1383.1
x1 = 0.4567 | 940.995 | 936.325 | 931.715 | 1431 | 1411.1 | 1392.3
x1 = 0.5014 | 945.986 | 941.37 | 936.823 | 1445.5 | 1425.7 | 1407.2
x1 = 0.5362 | 949.788 | 945.194 | 940.693 | 1456.6 | 1437 | 1418.2
x1 = 0.5982 | 956.336 | 951.867 | 947.455 | 1475.7 | 1456.5 | 1437.6
x1 = 0.6243 | 959.04 | 954.607 | 950.235 | 1483.6 | 1464.7 | 1445.7
x1 = 0.6644 | 963.103 | 958.737 | 954.427 | 1495.7 | 1477 | 1457.6
x1 = 0.7125 | 967.87 | 963.596 | 959.361 | 1510.2 | 1491.3 | 1471.8
x1 = 0.7703 | 973.454 | 969.292 | 965.131 | 1527.4 | 1508.7 | 1488.6
x1 = 0.8025 | 976.501 | 972.384 | 968.276 | 1537 | 1518.1 | 1497.9
x1 = 1 | 994.351 | 990.224 | 986.069 | 1602.6 | 1577.8 | 1558.4

Cc1ccccc1N [2-methylaniline] + CNC=O
[2]
Conditions | excess molar enthalpy [kcal/mol]
x1 = 0.0486 | -0.0402
x1 = 0.0972 | -0.0749
x1 = 0.1358 | -0.101
x1 = 0.1888 | -0.126
x1 = 0.2267 | -0.145
x1 = 0.2786 | -0.16
x1 = 0.3432 | -0.175
x1 = 0.3972 | -0.182
x1 = 0.4209 | -0.183
x1 = 0.4811 | -0.181
x1 = 0.5306 | -0.175
x1 = 0.5822 | -0.162
x1 = 0.6225 | -0.153
x1 = 0.6788 | -0.138
x1 = 0.7121 | -0.124
x1 = 0.7826 | -0.0967
x1 = 0.8127 | -0.0858
x1 = 0.8455 | -0.0712

[1]
Conditions | mass density, 298.15 K [kg/m3] | mass density, 303.15 K [kg/m3] | mass density, 308.15 K [kg/m3] | speed of sound, 298.15 K [m/s] | speed of sound, 303.15 K [m/s] | speed of sound, 308.15 K [m/s]
x1 = 0.0656 | 1000.18 | 995.882 | 991.55 | 1454.3 | 1438.4 | 1423.3
x1 = 0.1258 | 1000.98 | 996.704 | 992.418 | 1472.4 | 1456.3 | 1440.9
x1 = 0.1673 | 1001.39 | 997.124 | 992.87 | 1484.1 | 1467.8 | 1452.2
x1 = 0.2127 | 1001.71 | 997.464 | 993.254 | 1496 | 1479.7 | 1463.8
x1 = 0.2466 | 1001.88 | 997.65 | 993.459 | 1504.4 | 1488.2 | 1471.9
x1 = 0.2789 | 1001.99 | 997.753 | 993.588 | 1512.1 | 1495.7 | 1479.4
x1 = 0.3081 | 1002.03 | 997.811 | 993.675 | 1518.6 | 1502.3 | 1485.7
x1 = 0.3356 | 1002.04 | 997.839 | 993.709 | 1524.4 | 1508.2 | 1491.4
x1 = 0.3898 | 1001.96 | 997.768 | 993.664 | 1535.2 | 1518.9 | 1501.9
x1 = 0.4383 | 1001.79 | 997.624 | 993.525 | 1544 | 1527.6 | 1510.4
x1 = 0.4802 | 1001.56 | 997.416 | 993.334 | 1551.1 | 1534.6 | 1517.2
x1 = 0.5269 | 1001.25 | 997.104 | 993.02 | 1558.2 | 1541.5 | 1524.1
x1 = 0.5599 | 1000.97 | 996.843 | 992.76 | 1562.9 | 1545.9 | 1528.5
x1 = 0.6006 | 1000.59 | 996.484 | 992.392 | 1568.2 | 1551.1 | 1533.6
x1 = 0.6519 | 1000.02 | 995.935 | 991.837 | 1574.4 | 1556.7 | 1539.2
x1 = 0.7244 | 999.105 | 995.043 | 990.907 | 1582.2 | 1563.4 | 1546
x1 = 0.7904 | 998.148 | 994.083 | 989.937 | 1588.2 | 1568.3 | 1550.9
x1 = 0.8485 | 997.204 | 993.14 | 988.977 | 1592.8 | 1571.9 | 1554.2
x1 = 1 | 994.351 | 990.224 | 986.069 | 1602.6 | 1577.8 | 1558.4

CNC=O [N-methylformamide] + C1CCOCC1
[2]
Conditions | excess molar enthalpy [kcal/mol]
x2 = 0.0662 | 0.00815
x2 = 0.1805 | 0.0293
x2 = 0.2254 | 0.0372
x2 = 0.2892 | 0.0493
x2 = 0.3252 | 0.0564
x2 = 0.3743 | 0.064
x2 = 0.4016 | 0.0666
x2 = 0.4724 | 0.0749
x2 = 0.5114 | 0.0772
x2 = 0.5562 | 0.0781
x2 = 0.5923 | 0.0776
x2 = 0.6242 | 0.0747
x2 = 0.6675 | 0.0727
x2 = 0.7153 | 0.0658
x2 = 0.7576 | 0.0603
x2 = 0.7901 | 0.0533
x2 = 0.8152 | 0.0482
x2 = 0.8676 | 0.0367

[1]
Conditions | mass density, 298.15 K [kg/m3] | mass density, 303.15 K [kg/m3] | mass density, 308.15 K [kg/m3] | speed of sound, 298.15 K [m/s] | speed of sound, 303.15 K [m/s] | speed of sound, 308.15 K [m/s]
x2 = 0 | 999.004 | 994.653 | 990.302 | 1432.9 | 1417.7 | 1402.5
x2 = 0.0822 | 984.359 | 979.949 | 975.601 | 1411.8 | 1396.4 | 1380.7
x2 = 0.1587 | 971.886 | 967.407 | 963.009 | 1394 | 1377.9 | 1361.7
x2 = 0.2344 | 960.487 | 955.945 | 951.454 | 1377.9 | 1361 | 1344.4
x2 = 0.2633 | 956.359 | 951.788 | 947.263 | 1372.1 | 1355 | 1338.1
x2 = 0.3005 | 951.208 | 946.607 | 942.041 | 1365 | 1347.4 | 1330.3
x2 = 0.3572 | 943.711 | 939.057 | 934.409 | 1354.5 | 1336.5 | 1319.1
x2 = 0.3814 | 940.623 | 935.944 | 931.277 | 1350.3 | 1332 | 1314.5
x2 = 0.4163 | 936.288 | 931.584 | 926.867 | 1344.4 | 1325.8 | 1308
x2 = 0.4334 | 934.212 | 929.494 | 924.763 | 1341.6 | 1322.9 | 1305
x2 = 0.4851 | 928.124 | 923.354 | 918.566 | 1333.4 | 1314.3 | 1296.1
x2 = 0.5122 | 925.036 | 920.247 | 915.428 | 1329.3 | 1310 | 1291.6
x2 = 0.5693 | 918.752 | 913.91 | 909.049 | 1321 | 1301.3 | 1282.6
x2 = 0.6064 | 914.817 | 909.949 | 905.053 | 1315.9 | 1296 | 1277
x2 = 0.6571 | 909.625 | 904.722 | 899.79 | 1309.1 | 1289 | 1269.6
x2 = 0.6988 | 905.507 | 900.569 | 895.605 | 1303.8 | 1283.5 | 1263.7
x2 = 0.7315 | 902.361 | 897.401 | 892.421 | 1299.8 | 1279.3 | 1259.3
x2 = 0.7743 | 898.361 | 893.366 | 888.365 | 1294.7 | 1273.9 | 1253.5
x2 = 0.8468 | 891.856 | 886.811 | 881.763 | 1286.4 | 1265.1 | 1244.1

From the NIST ThermoML archive (doi:10.1016/j.tca.2011.06.020)
